Like-named read-outs stand apart in the source and are kept apart here.

In series [1] the target is wild-type human cardiac sodium channel, hNav1.5 (late INa) (Homo sapiens, UniProt Q14524). Nature of the series: Late INa screening assay (QPatch whole cell patch clamp). Type of series: cell-based. The method, boiled down: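 HEK293 cells stably expressing hNav1.5 alpha subunit without beta subunits, QPatch automated whole-cell clamp at 23-25° C, CsF-based internal solution pH 7.4. Late INa induced by 10 μM tefluthrin; 250 ms steps to −20 mV from −120 mV at 0.1 Hz, compounds at 1 μM. Percent block of mean current 225–250 ms into the step.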
Chain of wild-type human cardiac sodium channel, hNav1.5 (late INa) (Q14524 whole entry): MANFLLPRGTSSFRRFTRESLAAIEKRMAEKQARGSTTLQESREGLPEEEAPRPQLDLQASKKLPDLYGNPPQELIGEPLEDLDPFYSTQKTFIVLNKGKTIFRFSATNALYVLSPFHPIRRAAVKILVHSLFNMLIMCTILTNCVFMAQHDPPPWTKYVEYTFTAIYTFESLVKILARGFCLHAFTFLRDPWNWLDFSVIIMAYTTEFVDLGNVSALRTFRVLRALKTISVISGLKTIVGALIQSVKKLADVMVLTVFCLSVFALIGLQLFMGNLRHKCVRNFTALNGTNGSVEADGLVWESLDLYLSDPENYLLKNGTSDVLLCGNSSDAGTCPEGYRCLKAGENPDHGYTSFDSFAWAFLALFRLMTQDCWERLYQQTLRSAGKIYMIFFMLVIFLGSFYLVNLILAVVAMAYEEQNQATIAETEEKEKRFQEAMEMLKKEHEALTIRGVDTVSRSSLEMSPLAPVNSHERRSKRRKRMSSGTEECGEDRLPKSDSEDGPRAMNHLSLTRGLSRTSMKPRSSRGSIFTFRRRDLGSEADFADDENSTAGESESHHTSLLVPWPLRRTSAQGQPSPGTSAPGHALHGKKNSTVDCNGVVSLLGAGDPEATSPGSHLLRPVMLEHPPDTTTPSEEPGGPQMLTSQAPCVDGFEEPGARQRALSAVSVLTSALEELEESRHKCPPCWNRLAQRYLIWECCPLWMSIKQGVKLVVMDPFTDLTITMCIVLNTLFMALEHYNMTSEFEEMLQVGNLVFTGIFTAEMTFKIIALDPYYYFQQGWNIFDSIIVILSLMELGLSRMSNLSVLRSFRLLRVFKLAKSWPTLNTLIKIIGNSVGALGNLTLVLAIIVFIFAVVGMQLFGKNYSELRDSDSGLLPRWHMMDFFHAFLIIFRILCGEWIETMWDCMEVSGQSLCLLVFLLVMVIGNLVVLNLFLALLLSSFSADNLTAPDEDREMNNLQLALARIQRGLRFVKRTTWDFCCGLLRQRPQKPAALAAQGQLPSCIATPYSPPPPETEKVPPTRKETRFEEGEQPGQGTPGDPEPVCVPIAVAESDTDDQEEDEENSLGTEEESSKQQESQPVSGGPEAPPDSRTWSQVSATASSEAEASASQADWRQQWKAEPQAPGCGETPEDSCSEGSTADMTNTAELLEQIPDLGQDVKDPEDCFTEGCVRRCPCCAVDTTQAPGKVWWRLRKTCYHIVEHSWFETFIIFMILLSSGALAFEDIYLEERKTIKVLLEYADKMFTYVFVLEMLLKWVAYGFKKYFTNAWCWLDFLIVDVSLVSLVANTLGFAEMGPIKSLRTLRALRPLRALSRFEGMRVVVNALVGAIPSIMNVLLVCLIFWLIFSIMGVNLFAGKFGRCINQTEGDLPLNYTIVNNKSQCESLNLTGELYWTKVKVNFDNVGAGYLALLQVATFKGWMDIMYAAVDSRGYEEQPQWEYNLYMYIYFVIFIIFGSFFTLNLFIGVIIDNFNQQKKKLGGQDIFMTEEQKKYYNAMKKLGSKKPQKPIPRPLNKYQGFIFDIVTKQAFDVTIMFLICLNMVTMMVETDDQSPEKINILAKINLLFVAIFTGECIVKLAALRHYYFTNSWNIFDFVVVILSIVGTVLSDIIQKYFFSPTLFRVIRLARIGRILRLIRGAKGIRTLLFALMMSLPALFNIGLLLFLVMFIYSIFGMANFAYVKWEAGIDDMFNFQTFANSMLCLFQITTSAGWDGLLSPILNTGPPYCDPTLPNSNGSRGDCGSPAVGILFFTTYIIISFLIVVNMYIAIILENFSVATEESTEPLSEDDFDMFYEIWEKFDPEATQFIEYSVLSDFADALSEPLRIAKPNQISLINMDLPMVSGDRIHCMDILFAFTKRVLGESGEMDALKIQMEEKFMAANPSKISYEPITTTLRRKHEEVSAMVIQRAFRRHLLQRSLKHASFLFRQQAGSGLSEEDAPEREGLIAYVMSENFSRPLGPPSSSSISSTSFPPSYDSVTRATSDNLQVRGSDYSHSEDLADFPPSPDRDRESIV
(In general: The patch-clamp technique gives a direct electrical read-out from membranes.)

A further series concerns the target hERG potassium channel (Homo sapiens, UniProt Q12809). Nature of the series: hERG screening assay (PatchXpress, CHO cells). Type of series: cell-based. The following applies: % inhibition at 1 μM. On the procedure: Compounds were also tested for their effect to block the hERG K^+ channel.
Compounds were screened to test their activity in blocking the hERG potassium channel at AVIVA Biosciences (San Deigo, Calif., USA). The hERG channel is heterologously expressed in a CHO (Chinese Hamster Ovary) cell line. Cells were maintained with standard tissue culture procedures and stable channel expression was maintained with 500 μg/mL G418 in the culture medium. Cells were harvested for testing on the PatchXpress 7000A automated patch clamp with Accumax (Innovative Cell Technologies, San Diego, Calif.) to isolate single cells.
The following solutions were used for electrophysiological recordings. The external solution contained: 2 mM CaCl2; 2 mM MgCl2; 4 mM KCl; 150 mM NaCl; 10 mM Glucose; 10 mM HEPES (pH 7.4 with 1M NaOH; osmolarity, ˜310 mOsm). The internal solution contained: 140 mM KCl, 10 mM MgCl2, 6 mM EGTA, 5 mM HEPES, 5 mM ATP (pH adjusted to 7.25 with KOH; osmolarity, ˜295 mOsm).
hERG channels were activated when the voltage was first stepped to −50 mV for 300 ms from the −80 mV holding potential and then stepped to +20 mV for 5 seconds. At +20 mV the channels open and then largely inactivate, so the currents are relatively small. Upon returning to −50 mV from +20 mV, hERG currents transiently become much larger as inactivation is rapidly removed and then the channel closes. The first step to −50 mV for 300 ms was used as a baseline for measuring the peak amplitude during the step to −50 mV after channel activation. The peak tail current at −50 mV was measured both under control conditions and after addition of compound, each cell serving as its own control.
All compounds were prepared as 10 mM DMSO stocks in glass vials. Stock solutions were mixed by vigorous vortexing and sonication for about 2 minutes at room temperature. For testing, compounds were diluted in glass vials using an intermediate dilution step in pure DMSO and then further diluted to working concentrations in external solution. Dilutions were prepared no longer than 20 minutes before use.
For the electrophysiological recordings, after achieving the whole-cell configuration, cells were monitored for 90 seconds to assess stability and washed with external solution for 66 seconds. The voltage protocol described above was then applied to the cells every 12 seconds and throughout the whole procedure. Only cells with stable recording parameters and meeting specified health criteria were allowed to enter the compound addition procedure.
External solution containing 0.1% DMSO (vehicle) was applied to the cells first to establish the control peak current amplitude. After allowing the current to stabilize for 3 to 5 minutes, 1 μM and then 10 μM test compounds were applied. Each compound concentration was added 4 times and cells were kept in test solution until the effect of the compound reached steady state or for a maximum of 12 minutes. After addition of test compound, a positive control (1 μM Cisapride) was added and must block >95% of the current for the experiment to be considered valid. Washout in the external solution compartment was performed until the recovery of the current reached steady state.
On the technique in general: The hERG channel carries a current that helps repolarise heart muscle cells.

Series [2] in a line: Microsomal stability assay, rat. In kind it is in vitro ADME. The following applies: metabolic stability, rat liver microsomes 0.5 mg/mL, substrate 3 uM. The method, boiled down:
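Liver microsomes at 0.5 mg/mL protein in 100 mM KPO4 buffer, incubated with 3 uM compound and NADPH-regenerating system, run in duplicate. Samples taken at 2, 12, 25, 45 and 65 min and quenched in MeOH/ACN/water before analysis.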
Background: Liver microsomes are vesicles of endoplasmic reticulum, rich in cytochrome P450 enzymes.

[3] abbreviates: % inhibition at 1 μM, read-out: NAv1.5*-LATE-.
Where [4] appears, read: percent block of late INa, compound at 1 μM, 10 μM Tefluthrin, HEK293 hNav1.5, read-out: Late INa 1 μM.

Chain of hERG potassium channel (Q12809 whole entry): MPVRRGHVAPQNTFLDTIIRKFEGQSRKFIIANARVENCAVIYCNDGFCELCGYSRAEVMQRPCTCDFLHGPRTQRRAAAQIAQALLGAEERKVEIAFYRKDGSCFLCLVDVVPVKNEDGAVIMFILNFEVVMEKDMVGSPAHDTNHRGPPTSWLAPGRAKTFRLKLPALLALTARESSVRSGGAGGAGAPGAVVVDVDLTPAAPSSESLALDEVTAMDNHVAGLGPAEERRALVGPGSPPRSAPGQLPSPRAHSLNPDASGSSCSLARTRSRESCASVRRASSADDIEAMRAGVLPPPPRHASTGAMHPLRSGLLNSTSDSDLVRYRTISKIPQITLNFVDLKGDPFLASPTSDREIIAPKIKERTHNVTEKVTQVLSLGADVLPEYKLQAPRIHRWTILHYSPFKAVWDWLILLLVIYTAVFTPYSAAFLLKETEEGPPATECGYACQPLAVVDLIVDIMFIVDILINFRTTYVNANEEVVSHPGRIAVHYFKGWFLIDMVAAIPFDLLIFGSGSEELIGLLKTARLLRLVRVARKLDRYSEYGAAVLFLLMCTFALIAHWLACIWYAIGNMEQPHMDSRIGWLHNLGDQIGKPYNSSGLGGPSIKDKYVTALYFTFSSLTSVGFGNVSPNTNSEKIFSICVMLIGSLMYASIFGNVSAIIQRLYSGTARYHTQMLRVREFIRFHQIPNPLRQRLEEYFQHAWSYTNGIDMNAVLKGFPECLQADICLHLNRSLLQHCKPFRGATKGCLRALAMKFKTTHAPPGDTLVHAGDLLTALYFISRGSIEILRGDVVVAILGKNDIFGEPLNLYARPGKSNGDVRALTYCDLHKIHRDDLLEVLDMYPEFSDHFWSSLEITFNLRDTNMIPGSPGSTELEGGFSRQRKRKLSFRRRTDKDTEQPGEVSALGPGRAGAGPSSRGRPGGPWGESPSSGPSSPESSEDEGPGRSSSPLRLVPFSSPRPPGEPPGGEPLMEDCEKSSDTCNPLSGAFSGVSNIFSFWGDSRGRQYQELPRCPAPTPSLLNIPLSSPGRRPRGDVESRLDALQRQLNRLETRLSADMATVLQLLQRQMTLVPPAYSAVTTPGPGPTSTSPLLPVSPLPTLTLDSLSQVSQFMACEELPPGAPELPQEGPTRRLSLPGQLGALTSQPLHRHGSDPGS

For `Cc1nc(Cn2cnc3ccc(-c4ccc(OC(F)(F)F)cc4)cc3c2=O)no1` [IV-9, 3-((5-methyl-1,2,4-oxadiazol-3-yl)methyl)-6-(4-(trifluoromethoxy)phenyl)quinazolin-4(3H)-one], the inhibition at 1 µM in series [1] (setting [3]) and in series [1] (setting [4]) was 42% each time. The “HERG*” value on hERG potassium channel was under 10%. In series [2], the MS Rat THalf is 243 min.

`O=C1c2cc(-c3ccc(OC(F)(F)F)cc3)ccc2CCN1Cc1ncccn1` [IX-1, 2-(pyrimidin-2-ylmethyl)-7-(4-(trifluoromethoxy)phenyl)-3,4-dihydroisoquinolin-1(2H)-one]: the inhibition at 1 µM in series [1] (setting [3]) and in series [1] (setting [4]) was 32% throughout. The “HERG*” value at hERG potassium channel was 17%. This compound also displayed an MS Rat THalf in series [2] of 150 min.

`O=C1c2cc(-c3ccc(C(F)(F)F)cc3)ccc2CCN1Cc1ncccn1` [IX-3, 2-(pyrimidin-2-ylmethyl)-7-(4-(trifluoromethyl)phenyl)-3,4-dihydroisoquinolin-1(2H)-one]: the inhibition at 1 µM in series [1] (setting [3]) and in series [1] (setting [4]) was 29% in each case. Further, the “HERG*” value on hERG potassium channel is recorded as 14%. Further, in series [2], the MS Rat THalf came out at 355 min.

`O=C(c1ncccn1)N1CCc2ccc(-c3ccc(C(F)(F)F)cc3)cc2C1` [IX-7, pyrimidin-2-yl(7-(4-(trifluoromethyl)phenyl)-3,4-dihydroisoquinolin-2(1H)-yl)methanone]: the inhibition at 1 µM in series [1] (setting [3]) and in series [1] (setting [4]) was 46% throughout. In addition, the “HERG*” value on hERG potassium channel is listed as under 10%. Moreover, the MS Rat THalf in series [2] was over 395 min.

As for `O=C(c1cccnn1)N1CCc2ccc(-c3ccc(C(F)(F)F)cc3)cc2C1` [IX-17, Pyridazin-3-yl(7-(4-(trifluoromethyl)phenyl)-3,4-dihydroisoquinolin-2 (1H)-yl) methanone], the inhibition at 1 µM in series [1] (setting [3]) and in series [1] (setting [4]) was 39% in each case. Also, the “HERG*” value at hERG potassium channel was found to be 76%. The same compound displayed an MS Rat THalf in series [2] of 302 min.

On to `Cn1cnc(C(=O)N2CCc3ccc(-c4ccc(C(F)(F)F)cc4)cc3C2)c1` [IX-39, (1-methyl-1H-imidazol-4-yl)(7-(4-(trifluoromethyl)phenyl)-3,4-dihydroisoquinolin-2(1H)-yl)methanone], for which the inhibition at 1 µM in series [1] (setting [3]) and in series [1] (setting [4]) was 30% in each case. On hERG potassium channel, the “HERG*” value was found to be 35%. In series [2], this compound gave an MS Rat THalf of 281 min.

Take `O=C1c2cc(-c3ccc(OC(F)(F)F)cc3)ccc2OCN1Cc1ccccn1` [VIII-3, 3-(pyridin-2-ylmethyl)-6-(4-(trifluoromethoxy)phenyl)-2H-benzo[e][1,3]oxazin-4(3H)-one]: the inhibition at 1 µM in series [1] (setting [3]) and in series [1] (setting [4]) was 58% in each case. For the same compound, the “HERG*” value at hERG potassium channel is under 10%. The MS Rat THalf in series [2] was determined as 227 min.

In the case of `CC1Oc2ccc(-c3ccc(OC(F)(F)F)cc3)cc2C(=O)N1Cc1ncccn1` (centres unmarked) [VIII-7, 2-methyl-3-(pyrimidin-2-ylmethyl)-6-(4-(trifluoromethoxy)phenyl)-2H-benzo[e][1,3]oxazin-4(3H)-one], the inhibition at 1 µM in series [1] (setting [3]) and in series [1] (setting [4]) was 22% in each case. Moreover, the “HERG*” value at hERG potassium channel was under 10%. Moreover, the MS Rat THalf in series [2] is 152 min.
